This assay concerns weight increase caused by croton oil. Put plainly: rat ear test according to Tonelli (croton oil), topical anti-inflammatory activity. In kind it is in vivo, Wistar rats. The note with it: 5 hours after treatment.

Each structure is given as a SMILES string.

One may read the ED50 as the dose that gives a 50% effect, or the effect in half of the subjects.

Compound `CCCCOc1ccc(CC(=O)NO)cc1` [Compound 1, Bufexamac] showed an ED50 of 15 mg/kg.

The compound `O=C(O)COc1nn(Cc2ccccc2)c2ccccc12` [Compound 2, Bendazac] displayed an ED50 of 15 mg/kg.

In turn, `CCCC(=O)OC1(C(=O)CO)CCC2C3CCC4=CC(=O)CCC4(C)C3C(O)CC21C` (stereo not drawn) [Compound 3, Hydrocortisone 17-butyrate] returned an ED50 of 0.5 mg/kg.

With `COc1ccc(C2CNC(=O)C2)cc1OC1CCCC1` (stereo not drawn) [Compound 4, 4-(3-Cyclopentyloxy-4-methoxyphenyl)-2-pyrrolidone], it took a dose of 0.6 mg/kg to reach the 50% effect level (ED50).

In the case of `COc1ccc(C2CNC(=O)C2)cc1OC1CCOC1` (stereo not drawn) [Compound 5, 4-[4-Methoxy-3-(3-tetrahydrofuryloxy)phenyl]-2-pyrrolidone], the ED50 was determined as 0.2 mg/kg.

With `COc1ccc(C2CNC(=O)C2)cc1OCC(C)C` (stereo not drawn) [Compound 6, 4-(3-Isobutoxy-4-nmethoxypheny1)-2-pyrrolidone], it took a dose of 1.1 mg/kg to reach the 50% effect level (ED50).

The record behind these values is patent US5998453A, “Oxazolidinone compounds and pharmaceutical preparation containing them” (Schering Aktiengesellschaft, priority 1984, dated 1999).
